From patent US20120005765A1, “ANIMAL MODEL FOR PARKINSON'S DISEASE” (Saint Louis University, priority 2010, published 2012)
Entries after “also recorded” stand apart in the source; their conditions may differ. Read-outs that look alike come from different tables or passages of the source. Blank lines part the entries; values can stand above or below the compound they belong to.

Tests used:
[1] = tested on: ALDH1A1; assay: Antisense inhibition of ALDH1A1 expression in rat substantia nigra, immunoblot; format: in vivo; settings: 1 week or 2 weeks; for optical density of ALDH1A1 Western blot bands, ipsilateral vs contralateral: Unscan software
Description: Antisense inhibition of ALDH1A1 expression in rats.
The immunoreactive bands of the Western blot of FIG. 8 were analyzed by Unscan it soft ware (Silk Scientific) and their optical densities plotted in FIG. 9.

[2] = tested on: rats; assay: Rotational asymmetry after apomorphine; format: in vivo, rat; settings: apomorphine 0.4 mg/kg, n=7
Description: (§1) Determination of DOPAL-induced Parkinson's disease-like behavior Injections of DOPAL or ALDH1A1 antisense oligo into rat SN. To determine if increased levels of DOPAL in SN produces a behavioral model of PD, 3 groups of rats were tested: unilateral SN injection of 4 μg DOPAL in 6 rats; unilateral SN injection of 0.56 μg antisense oligonucleotide (oligo) targeted to aldehyde dehydrogenase (ALDH1A1) mRNA, the DOPAL catabolic enzyme in 3 rats; 5 non-injected rats. After 5-7 weeks, rats were injected with apomorphine (0.4 mg/kg, subcutaneously) and rotational asymmetry determined in each group just prior to sacrifice. After the brains were fixed and sectioned, the SN, and forebrain were stained immunohistochemically for tyrosine hydroxylase immunoreactivity (THir). See Section 3.
Determination of rotational asymmetry. Rats first were injected subcutaneously with the dopamine agonist apomorphine (0.4 mg/kg) dissolved in 0.1 ascorbate saline solution. After waiting 5 min in their home cage, they were placed in a hemispheric rotation bowl 40 cm wide and 20 cm deep. Rotational behavior was then determined for 30 min and the number of ipsilateral and contralateral turns quantified by observation.
Rotational asymmetry was assessed to quantify the effect of unilateral depletions of striatal dopamine from disruptions of nigrostriatal circuitry. The rotational asymmetry behavior of rats (n=6) changed dramatically after injections with DOPAL (FIG. 5).
Behavioral asymmetry is considered the standard behavioral test for rodent models of Parkinson's disease. The column on the right is a summary of all the behaviors recorded in the rotational asymmetry test for all the rats ([…]).

[3] = tested on: DA SN neurons; assay: TH and NeuN immunohistochemistry after ALDH1A1 antisense injections into substantia nigra; format: in vivo, rat
Description: as §1
An antisense compound was used to decrease expression of ALDH1A1, which is responsible for breaking down DOPAL within the neuronal cell body and its effects on dopamine SN neurons and behavior were examined (FIGS. 6, 7). Three unilateral injections (total 800 nl; 700 pg/nl) of an antisense compound oligonucleotide (SEQ ID NO: 1), directed against the enzyme ALDH1A1, and comprising a phosphorothioate backbone, were made into the substantia nigra nucleus of the rat. The injections were placed in the pars compacta portion of the substantia nigra, the subnucleus where most of the dopaminergic neurons are found.

[4] = molecular target: α-synuclein (Homo sapiens, UniProt P37840); assay: DOPAL-triggered α-synuclein aggregation in test tube, Western blot; format: biochemical; settings: AS 2 μM, 37° C., up to 4 h, DOPAL 1.5-1,500 μM
Description: Determination of DOPAL-triggered α-synuclein aggregation in vitro. Western blot of DOPAL-triggered AS aggregation in test tube experiments. DOPAL was dissolved in 1% benzyl alcohol, then diluted to a final concentration of 1.5-1,500 μM as described previously. AS (2 μM) was incubated at 37° C. in 20 μl of 100 mM tris-HCl buffer (pH 7.2) with or without DA, DOPAL, DOPAC, or homovanillic acid (HVA) for up to 4 h. The reaction was stopped by heating at 70° C. for 3 min in SDS buffer. The entire mixture was transferred to the appropriate gel (vide infra).
SDS-PAGE and immunoblotting. Ten micrograms of protein (estimated by Bio Rad protein reagent) was resolved by electrophoresis on 4-12% bis-tris gels run with MES SDS buffer, and 3-8% tris-acetate gels using tris-acetate running buffer. For immunoblotting, the protein was transferred to PVDF blotting membranes with […] pore size, blocked with 5% milk protein in tris buffered saline (TBS) containing 0.1% Tween 20, and incubated for 1 h with a AS 202 monoclonal antibody (1:2,500 dilution). Blots were washed five times with 5% milk protein in TBS and probed with horseradish peroxidase-conjugated anti-mouse secondary antibody (1:2,500). Blots were washed five times with TBS containing. 0.5% Tween 20 before detection with Super Signal (Pierce).
Western blot analysis was performed to analyze DOPAL-induced aggregation of α-synuclein (FIG. 1). […]

[5] = tested on: PC12 cells; assay: DOPAL toxicity in vitro, viable PC12 cell count (trypan blue)
Description: Determination of DOPAL toxicity in vitro Toxicity experiments were essentially as described previously. PC12 cultures were initially expanded in T-75 flasks with 20 ml Dulbecco's Modified Eagle's Medium supplemented with 4.5 g/l glucose, 4 mM L-glutamine, 5% fetal calf serum, 10% horse serum, 1000 units/l penicillin, and 100 mg/l streptomycin. Cells were transferred to six well culture plates with 2 ml media and grown to 1.5×10^5 cells/well, treated with 50 ng/ml nerve growth factor (NGF), and maintained in NGF-containing media for 7 d prior to experimentation. The medium was changed every 2-3 d. […] During the experiments, the medium was replaced once a day. Cells were detached with buffered saline containing EDT A, centrifuged at 200×g and resuspended in trypan blue for counting of viable cells. […] DOPAL and other compounds were added as described in the description of the figure and examples. Data was analyzed by ANOVA.
DOPAL, as well as other physiologically metabolites and adducts, were added to PC12 cells in culture at concentrations that were physiologically relevant.

[6] = tested on: ALDH; settings: Lamensdorf et al. 2000; cited from earlier work
[7] = Experiment 1, 66 μM, None 299 ± 19

Compound: 5″-AGCAGACGATCTCTCTCCATT-3″ (DNA, backbone and methylation of C not given here) [Antisense 2, 21-base antisense oligonucleotide complementary to residues 313 to 333 of rat ALDH1A1 mRNA]
- ALDH1A1 protein, ipsilateral injected side vs contralateral side, Western blot [1]: Loss of ALDH1A1
- ALDH1A1 protein, ipsilateral injected side vs contralateral side, Western blot ([1]; listed as antisense 2): loss of ALDH1A1 protein
- optical density of ALDH1A1 Western blot bands, ipsilateral vs contralateral [1]: loss of ALDH1A1
- rotational asymmetry after unilateral antisense injection into SN [2]: dramatic shifts in its rotational preference

Compound: 5″-TGCAGGGGAAGACATTGCTGGT-3″ [Antisense 1]
- ALDH1A1 protein, ipsilateral injected side vs contralateral side, Western blot [1]: Loss of ALDH1A1
- ALDH1A1 protein, ipsilateral injected side vs contralateral side, Western blot ([1]; listed as antisense 1): loss of ALDH1A1 protein
- optical density of ALDH1A1 Western blot bands, ipsilateral vs contralateral [1]: loss of ALDH1A1
- neurons immediately adjacent to the injection site, Neun immunostaining ([3]; case R2504): have died
- intensity of TH staining in the injected SN ([3]; three unilateral injections, total 800 nl, 700 pg/nl): slightly less
- dopaminergic projections to rostral brain / ventral striatum, TH immunostaining ([3]; three unilateral injections, total 800 nl, 700 pg/nl, 5 or 7 weeks, listed as SEQ ID NO: 1): dramatically reduced; also recorded: absent/decreased
- rotational asymmetry after unilateral antisense injection into SN [2]: dramatic shifts in its rotational preference

- aggregation of α-synuclein oligomers in vitro [4]: not
Compound: NCCc1ccc(O)c(O)c1 [DA, dopamine]
- toxic in vitro at physiological levels [5]: not
- PC 12 cells/well × 103 ([5]; rat, 66 μM): 329 ± 21 cells/well × 103

Compound: O=C(O)Cc1ccc(O)c(O)c1 [DOPAC, 3,4-dihydroxyphenylacetic acid]
- toxic in vitro at physiological levels [5]: not
- PC 12 cells/well × 103 ([5]; rat, 66 μM): 334 ± 10 cells/well × 103

Compound: COc1cc(CC(=O)O)ccc1O [HVA, homovanillic acid]
- PC 12 cells/well × 103 [5, 7]: 322 ± 20 cells/well × 103
- toxic in vitro at physiological levels ([5]; PC12 cells in culture): not

Compound: C=C(C)[C@H]1Cc2c(ccc3c2O[C@@H]2COc4cc(OC)c(OC)cc4[C@@H]2C3=O)O1 [Rotenone, rotenone]
- PC 12 cells/well × 103 ([5]; Experiment 2, 10 μM, None 143 ± 12): 127 ± 9 cells/well × 103

Compound: Oc1ccc(CC2NCCc3cc(O)c(O)cc32)cc1O (stereo not shown) [Tetrahydropapaveroline]
- PC 12 cells/well × 103 [5, 7]: 346 ± 15 cells/well × 103
- toxic in vitro at physiological levels ([5]; PC12 cells in culture): not

Compound: O=c1c(-c2ccc(O)cc2)coc2cc(O)ccc12 [daidzein]
- inhibiting ALDH in PC-12 cells [6]: effective
